Test results published in ChEMBL document CHEMBL1129002, “Synthesis and biological evaluation of both enantiomers of L-761,000 as inhibitors of cyclooxygenase 1 and 2” (Bioorg Med Chem Lett, 1996).

Tests used:
Rattus norvegicus [1] = species on record: Rattus norvegicus; assay: Clearance in rat plasma; assay type: functional, organism-based
Rattus norvegicus [2] = assay: Compound was evaluated in vivo for its activity in the rat paw edema assay.; assay type: functional
[3] = target: T1, Prostaglandin G/H synthase 1 (Rattus norvegicus, UniProt Q63921); assay: In vitro inhibition of Prostaglandin G/H synthase 1
T1 sequence (Q63921 whole entry): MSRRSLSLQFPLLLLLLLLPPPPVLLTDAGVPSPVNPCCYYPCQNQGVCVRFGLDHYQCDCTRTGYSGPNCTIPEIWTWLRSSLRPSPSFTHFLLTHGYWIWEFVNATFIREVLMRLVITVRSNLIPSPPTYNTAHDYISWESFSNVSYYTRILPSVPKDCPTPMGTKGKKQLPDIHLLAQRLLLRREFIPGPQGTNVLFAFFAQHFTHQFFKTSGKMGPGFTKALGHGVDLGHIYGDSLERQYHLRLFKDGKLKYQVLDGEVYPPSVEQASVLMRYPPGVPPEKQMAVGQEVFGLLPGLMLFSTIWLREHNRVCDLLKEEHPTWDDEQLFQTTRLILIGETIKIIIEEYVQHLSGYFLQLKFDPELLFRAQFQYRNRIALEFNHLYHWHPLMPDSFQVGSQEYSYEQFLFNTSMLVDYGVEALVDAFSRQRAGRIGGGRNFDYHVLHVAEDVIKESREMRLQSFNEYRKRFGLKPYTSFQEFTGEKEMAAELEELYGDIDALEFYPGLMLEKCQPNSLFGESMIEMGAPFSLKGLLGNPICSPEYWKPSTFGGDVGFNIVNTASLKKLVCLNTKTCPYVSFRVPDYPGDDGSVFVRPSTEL

[4] = Cmax in rat plasma; assay type: ADME, organism-based
[5] = target: T2, Prostaglandin G/H synthase 2 (Rattus norvegicus, UniProt P35355); assay: In vitro inhibition of Prostaglandin G/H synthase 2
T2 sequence (P35355 whole entry): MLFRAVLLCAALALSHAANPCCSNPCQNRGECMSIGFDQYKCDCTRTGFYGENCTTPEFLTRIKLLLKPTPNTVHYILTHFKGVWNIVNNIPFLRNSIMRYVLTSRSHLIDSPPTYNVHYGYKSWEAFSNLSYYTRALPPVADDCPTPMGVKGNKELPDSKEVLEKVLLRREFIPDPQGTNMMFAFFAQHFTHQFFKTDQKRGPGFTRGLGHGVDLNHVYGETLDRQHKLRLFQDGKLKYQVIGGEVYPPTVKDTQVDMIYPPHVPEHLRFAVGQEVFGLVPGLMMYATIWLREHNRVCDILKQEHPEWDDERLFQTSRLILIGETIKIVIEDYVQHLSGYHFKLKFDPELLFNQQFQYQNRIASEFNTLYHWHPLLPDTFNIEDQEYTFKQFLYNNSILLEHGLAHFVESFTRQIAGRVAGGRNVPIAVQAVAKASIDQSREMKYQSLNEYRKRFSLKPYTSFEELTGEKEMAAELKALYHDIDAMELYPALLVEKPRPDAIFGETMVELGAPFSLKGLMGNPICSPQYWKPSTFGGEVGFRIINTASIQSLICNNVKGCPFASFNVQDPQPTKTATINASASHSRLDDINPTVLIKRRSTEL

Rattus norvegicus [6] = assay: Compound was evaluated in vivo for its activity in the rat pyresis assay.; assay type: functional

SMILES | CL (mL.min-1.kg-1) (Rattus norvegicus [1]) | ED30 (Rattus norvegicus [2]) | IC50 [3] | Cmax [4] | IC50 [5] | ED50 (Rattus norvegicus [6])
COc1ccc2c(c1)c(C[C@@H](C)CC(=O)O)c(C)n2Cc1ccc(Br)cc1 | 2.8 | 0.4 mg/kg | > 10000 nM | 24.3 µM | 60 nM | 1.9 mg/kg
COc1ccc2c(c1)c(C[C@H](C)CC(=O)O)c(C)n2Cc1ccc(Br)cc1 | 21 | > 3 mg/kg | > 10000 nM | 14.4 µM | 20 nM | –
COc1ccc2c(c1)c(CC(=O)O)c(C)n2C(=O)c1ccc(Cl)cc1 [INDOMETHACIN] | – | 0.4 mg/kg | – | – | – | 1 mg/kg
COc1ccc2c(c1)c(CC(C)CC(=O)O)c(C)n2Cc1ccc(Br)cc1 (configuration not stated) | 5.7 | 0.4 mg/kg | > 10000 nM | – | 50 nM | –
